Experimental data published in the NIST ThermoML archive (doi:10.1021/je050173+).
± gives the expanded uncertainty stated by the source.

Tests used:
[1] = molar heat capacity at constant pressure; settings: 101.33 kPa, Liquid
[2] = for mass density / viscosity / thermal conductivity: 101.33 kPa; for mass density / viscosity / thermal conductivity / vapor or sublimation pressure: Liquid; for thermal conductivity: Hot wire method; for surface tension liquid-gas: Maximal bubble pressure

C[Si]1(C)O[Si](C)(C)O[Si](C)(C)O1 [hexamethylcyclotrisiloxane]
Settings	mass density [kg/m3]	molar heat capacity at constant pressure [J/K/mol]	surface tension liquid-gas [mN/m]	thermal conductivity [W/m/K]	vapor or sublimation pressure [kPa]	viscosity [mPa·s]
[1], 339.9 K	–	404.5 ± 3.1	–	–	–	–
[1], 343.15 K	–	405.9 ± 3.1	–	–	–	–
[1], 345.03 K	–	406.7 ± 3.2	–	–	–	–
[1], 353.15 K	–	410.4 ± 3.2	–	–	–	–
[1], 357.92 K	–	412.3 ± 3.2	–	–	–	–
[1], 361.2 K	–	413.8 ± 3.2	–	–	–	–
[1], 365.09 K	–	415.6 ± 3.2	–	–	–	–
[1], 370.16 K	–	418.1 ± 3.2	–	–	–	–
[1], 374.79 K	–	420.1 ± 3.3	–	–	–	–
[1], 379.42 K	–	421.8 ± 3.3	–	–	–	–
[1], 383.15 K	–	423.6 ± 3.3	–	–	–	–
[1], 388.06 K	–	425.6 ± 3.3	–	–	–	–
[1], 393.14 K	–	428.1 ± 3.3	–	–	–	–
[1], 398.01 K	–	430 ± 3.3	–	–	–	–
[1], 400 K	–	431 ± 3.3	–	–	–	–
[1], 404.89 K	–	433.2 ± 3.4	–	–	–	–
[2], 343.15 K	872.69 ± 1.3	–	–	0.1026 ± 0.0005	–	0.48 ± 0.02
[2], 344.55 K	–	–	13.54 ± 0.14	–	–	–
[2], 347.35 K	–	–	13.32 ± 0.14	–	–	–
[2], 347.64 K	–	–	–	–	13.85 ± 0.086	–
[2], 348.15 K	–	–	–	–	–	0.46 ± 0.02
[2], 348.7 K	865.41 ± 1.3	–	–	–	–	–
[2], 350.13 K	–	–	–	–	15.28 ± 0.087	–
[2], 351.45 K	–	–	–	–	16.19 ± 0.088	–
[2], 353.15 K	–	–	–	–	–	0.44 ± 0.02
[2], 353.95 K	–	–	12.9 ± 0.14	–	–	–
[2], 354.65 K	856.98 ± 1.4	–	–	–	–	–
[2], 355.59 K	–	–	–	–	19.01 ± 0.089	–
[2], 357.4 K	854.11 ± 1.4	–	–	–	–	–
[2], 358.15 K	–	–	–	–	–	0.42 ± 0.02
[2], 358.45 K	–	–	12.68 ± 0.14	–	–	–
[2], 359.15 K	852.6 ± 1.4	–	–	–	–	–
[2], 360.17 K	–	–	–	–	22.55 ± 0.09	–
[2], 361.61 K	–	–	–	–	23.75 ± 0.091	–
[2], 362.4 K	–	–	–	–	24.47 ± 0.092	–
[2], 363.15 K	–	–	12.33 ± 0.14	–	–	0.4 ± 0.02
[2], 365.71 K	–	–	–	–	27.62 ± 0.093	–
[2], 366.1 K	842.76 ± 1.5	–	–	–	–	–
[2], 368.15 K	–	–	12.02 ± 0.13	–	–	0.39 ± 0.02
[2], 368.81 K	–	–	–	–	30.71 ± 0.095	–
[2], 369.65 K	838 ± 1.5	–	–	–	–	–
[2], 372.34 K	–	–	–	–	34.63 ± 0.096	–
[2], 372.68 K	–	–	–	–	35.01 ± 0.097	–
[2], 373.15 K	833.47 ± 1.5	–	11.71 ± 0.13	–	–	0.37 ± 0.02
[2], 378.15 K	–	–	11.4 ± 0.13	–	–	0.35 ± 0.02
[2], 379.16 K	825.64 ± 1.6	–	–	–	–	–
[2], 381.37 K	–	–	–	–	46.63 ± 0.1	–
[2], 383.15 K	820.39 ± 1.6	–	11.09 ± 0.13	–	–	0.34 ± 0.02
[2], 383.78 K	–	–	–	–	50.31 ± 0.1	–
[2], 387.85 K	814.16 ± 1.7	–	–	–	–	–
[2], 387.95 K	–	–	–	–	57.22 ± 0.11	–
[2], 388.15 K	–	–	–	–	–	0.33 ± 0.01
[2], 393.15 K	–	–	–	–	–	0.32 ± 0.01
[2], 397.75 K	–	–	–	–	76.52 ± 0.12	–
[2], 407.63 K	–	–	–	–	100.85 ± 0.13	–

C[Si]1(C)O[Si](C)(C)O[Si](C)(C)O[Si](C)(C)O1 [octamethylcyclotetrasiloxane]
Settings	mass density [kg/m3]	molar heat capacity at constant pressure [J/K/mol]	surface tension liquid-gas [mN/m]	thermal conductivity [W/m/K]	vapor or sublimation pressure [kPa]	viscosity [mPa·s]
[1], 293.15 K	–	511.5 ± 4	–	–	–	–
[1], 298 K	–	513.6 ± 4	–	–	–	–
[1], 303.15 K	–	515.8 ± 4	–	–	–	–
[1], 306.25 K	–	517.2 ± 4	–	–	–	–
[1], 313.12 K	–	520.1 ± 4	–	–	–	–
[1], 319 K	–	522.7 ± 4	–	–	–	–
[1], 323.25 K	–	524.5 ± 4.1	–	–	–	–
[1], 327.55 K	–	526.4 ± 4.1	–	–	–	–
[1], 334.75 K	–	529.1 ± 4.1	–	–	–	–
[1], 337.88 K	–	530.8 ± 4.1	–	–	–	–
[1], 342.23 K	–	532.7 ± 4.1	–	–	–	–
[1], 348.05 K	–	535.2 ± 4.1	–	–	–	–
[1], 352.2 K	–	538.8 ± 4.2	–	–	–	–
[1], 358.83 K	–	539.9 ± 4.2	–	–	–	–
[1], 364.28 K	–	542.2 ± 4.2	–	–	–	–
[1], 370.25 K	–	543 ± 4.2	–	–	–	–
[1], 377.55 K	–	548 ± 4.2	–	–	–	–
[1], 382.48 K	–	550.1 ± 4.3	–	–	–	–
[1], 388.65 K	–	552.3 ± 4.3	–	–	–	–
[1], 393.15 K	–	554.7 ± 4.3	–	–	–	–
[1], 399.83 K	–	557.7 ± 4.3	–	–	–	–
[1], 407.15 K	–	560.8 ± 4.3	–	–	–	–
[1], 415.73 K	–	564.5 ± 4.4	–	–	–	–
[1], 425.95 K	–	568.4 ± 4.4	–	–	–	–
[2], 292 K	957.55 ± 0.74	–	–	–	–	–
[2], 293.15 K	–	–	17.93 ± 0.16	–	–	2.45 ± 0.08
[2], 298.15 K	–	–	–	0.1131 ± 0.0005	–	–
[2], 301.6 K	946.16 ± 0.81	–	–	–	–	–
[2], 303.15 K	944.21 ± 0.83	–	17.28 ± 0.16	–	–	2.06 ± 0.06
[2], 311.2 K	934.8 ± 0.88	–	–	–	–	–
[2], 311.8 K	–	–	–	–	0.355 ± 0.08	–
[2], 313.15 K	932.43 ± 0.9	–	16.6 ± 0.16	–	–	1.7 ± 0.05
[2], 316 K	929.12 ± 0.92	–	–	–	–	–
[2], 317.63 K	–	–	–	–	0.535 ± 0.08	–
[2], 318.25 K	–	–	–	–	0.548 ± 0.08	–
[2], 323.15 K	–	–	15.95 ± 0.15	–	–	1.44 ± 0.05
[2], 325.62 K	917.74 ± 0.99	–	–	–	–	–
[2], 328.59 K	–	–	–	–	0.988 ± 0.08	–
[2], 328.78 K	–	–	–	–	0.996 ± 0.08	–
[2], 330.47 K	912.06 ± 1	–	–	–	–	–
[2], 332.94 K	–	–	–	–	1.295 ± 0.081	–
[2], 333.15 K	909.32 ± 1	–	15.16 ± 0.15	–	–	1.23 ± 0.04
[2], 336.67 K	–	–	–	–	1.642 ± 0.081	–
[2], 339.58 K	–	–	–	–	1.926 ± 0.081	–
[2], 340.05 K	900.68 ± 1.1	–	–	–	–	–
[2], 343.15 K	–	–	14.5 ± 0.15	0.1038 ± 0.0005	–	1.06 ± 0.03
[2], 343.99 K	–	–	–	–	2.426 ± 0.081	–
[2], 344.8 K	894.99 ± 1.1	–	–	–	–	–
[2], 349.65 K	889.31 ± 1.2	–	–	–	–	–
[2], 349.86 K	–	–	–	–	3.277 ± 0.081	–
[2], 353.15 K	884.79 ± 1.2	–	13.77 ± 0.14	–	–	0.92 ± 0.03
[2], 360.26 K	–	–	–	–	5.47 ± 0.082	–
[2], 363.15 K	–	–	13.05 ± 0.14	–	–	0.81 ± 0.03
[2], 364.04 K	872.24 ± 1.3	–	–	–	–	–
[2], 373.15 K	861.35 ± 1.4	–	12.38 ± 0.14	–	–	0.71 ± 0.02
[2], 376.51 K	–	–	–	–	10.96 ± 0.085	–
[2], 379.31 K	–	–	–	–	12.23 ± 0.085	–
[2], 381.23 K	–	–	–	–	13.17 ± 0.086	–
[2], 383.15 K	–	–	–	–	–	0.63 ± 0.02
[2], 383.17 K	–	–	–	–	14.24 ± 0.086	–
[2], 383.2 K	849.47 ± 1.4	–	–	–	–	–
[2], 383.58 K	–	–	–	–	14.44 ± 0.086	–
[2], 388.92 K	–	–	–	–	17.67 ± 0.088	–
[2], 389.73 K	–	–	–	–	18.2 ± 0.088	–
[2], 390.88 K	–	–	–	–	18.9 ± 0.088	–
[2], 393.15 K	837.64 ± 1.5	–	10.98 ± 0.13	–	–	0.56 ± 0.02
[2], 396.28 K	–	–	–	–	22.95 ± 0.091	–
[2], 397.6 K	832.37 ± 1.6	–	–	–	–	–
[2], 403.15 K	–	–	–	–	–	0.51 ± 0.02
[2], 407.22 K	821 ± 1.6	–	–	–	–	–
[2], 407.56 K	–	–	–	–	33.46 ± 0.096	–
[2], 413.15 K	813.94 ± 1.7	–	9.58 ± 0.12	–	–	–
[2], 413.82 K	–	–	–	–	40.8 ± 0.1	–
[2], 421.58 K	803.91 ± 1.8	–	–	–	–	–
[2], 423.15 K	–	–	–	–	–	0.41 ± 0.02
[2], 423.24 K	–	–	–	–	54.11 ± 0.11	–
[2], 433.15 K	790.24 ± 1.9	–	8.18 ± 0.12	–	–	–
[2], 446.26 K	–	–	–	–	100.82 ± 0.13	–
